Experimental data: patent US4575497A, “3, 3", 4"-Tri-O-acylspiramycin I” (Kyowa Hakko Kogyo Co., Ltd, priority 1983, dated 1986)

Columns and labels:
[1] = background literature, in words; cited from earlier work
Bacillus cereus KB143 = test: MIC against Bacillus cereus KB143 (D); assay type: cell-based; conditions: Heart infusion agar (pH 7.0)
Description: (§1) The minimum inhibitory concentration (MIC) of Compound (I) is shown in Table 4 in comparison with that of spiramycin I.
(§2) Minimum inhibitory concentration (MIC, μ g/ml)
(§3) Remark: medium used: Heart infusion agar (pH 7.0)
D: Bacillus cereus KB143

[2] = tested on: Streptococcus pneumoniae Type III; test: Infection-healing effect, mice protection test (Test Example); assay type: in vivo; conditions: for Number of survived mice out of 10 mice: 60 mg/kg in 0.3% CMC, orally just after i.p. inoculation (1.1×10^2 cfu/mouse), 7th day; for therapeutic effect in an infection-healing test in mice: Streptococcus pneumoniae Type III, compared with acetylspiramycin and 3, 3", 4"-tri-O-acetylspiramycin I
Method: A test example of the therapeutic effect of Compound (I) in experimental test mice protection test will be given below:
Animal: ddY-strain male mice, 19±lg, one group consisting of ten mice.
Test bacterium: Streptococcus pneumoniae Type III, Inoculation rate: 1.1×10^2 cfu/mouse.
The predetermined amount of the precultured test bacteria was inoculated via i.p.
Medicament administration: 60 mg/kg of each of the medicaments was suspended in 0.3% CMC, and orally administered just after the inoculation of bacteria.

[3] = tested on: Klebsiella pneumoniae KB214; test: MIC against Klebsiella pneumoniae KB214 (G); assay type: cell-based; conditions: Heart infusion agar (pH 7.0)
Description: as §1, §2, §3
G: Klebsiella pneumoniae KB214

Micrococcus ruteus KB212 = test: MIC against Micrococcus ruteus KB212 (E); assay type: cell-based; conditions: Heart infusion agar (pH 7.0)
Description: as §1, §2, §3
E: Micrococcus ruteus KB212

[4] = tested on: Staphylococcus aureus KB210; test: MIC against Staphylococcus aureus KB210 (A); assay type: cell-based; conditions: Heart infusion agar (pH 7.0)
Description: as §1, §2, §3
A: Staphylococcus aureus KB210

[5] = tested on: Staphylococcus aureus KB199; test: MIC against Staphylococcus aureus KB199 (B); assay type: cell-based; conditions: Heart infusion agar (pH 7.0)
Description: as §1, §2, §3
B: Staphylococcus aureus KB199

Escherichia coli KB213 = test: MIC against Escherichia coli KB213 (F); assay type: cell-based; conditions: Heart infusion agar (pH 7.0)
Description: as §1, §2, §3
F: Escherichia coli KB213

Bacillus subtilis KB211 = test: MIC against Bacillus subtilis KB211 (C); assay type: cell-based; conditions: Heart infusion agar (pH 7.0)
Description: as §1, §2, §3
C: Bacillus subtilis KB211

Molecule	in vivo activity compared with starting compounds [1]	Minimum inhibitory concentration (MIC) (Bacillus cereus KB143)	Number of survived mice out of 10 mice [2]	Minimum inhibitory concentration (MIC) [3]	Minimum inhibitory concentration (MIC) (Micrococcus ruteus KB212)	Minimum inhibitory concentration (MIC) [4]	Minimum inhibitory concentration (MIC) [5]	Minimum inhibitory concentration (MIC) (Escherichia coli KB213)	Minimum inhibitory concentration (MIC) (Bacillus subtilis KB211)	therapeutic effect in an infection-healing test in mice [2]
3", 9-di-O-acetyl compound of midecamycin	better in vivo activity	–	–	–	–	–	–	–	–	–
CCCC(=O)O[C@H]1[C@H](C)O[C@@H](O[C@H]2[C@H](N(C)C)[C@@H](O)[C@H](O[C@H]3[C@@H](CC=O)C[C@@H](C)[C@@H](O)/C=C/C=C/C[C@@H](C)OC(=O)C[C@@H](O)[C@@H]3OC)O[C@@H]2C)C[C@@]1(C)OC(=O)CC [3"-O-propionyl compound of leucomycin A5]	better in vivo activity	–	–	–	–	–	–	–	–	–
CCC(=O)OC1C(C)OC(OC2C(C)OC(OC3C(CC=O)CC(C)C(OC4CCC(N(C)C)C(C)O4)C=CC=CCC(C)OC(=O)CC(OC(C)=O)C3OC)C(O)C2N(C)C)CC1(C)OC(C)=O (centres unmarked) [Compound 1, 3, 3"-di-O-acetyl-4"-O-propionylspiramycin I]	–	3.12 μ g/ml	5 mice out of 10 mice	> 100 μ g/ml	< 0.1 μ g/ml	3.12 μ g/ml	> 100 μ g/ml	> 100 μ g/ml	1.56 μ g/ml	–
CCCC(=O)OC1C(C)OC(OC2C(C)OC(OC3C(CC=O)CC(C)C(OC4CCC(N(C)C)C(C)O4)C=CC=CCC(C)OC(=O)CC(OC(C)=O)C3OC)C(O)C2N(C)C)CC1(C)OC(C)=O (centres unmarked) [Compound 2, 3, 3"-di-O-acetyl-4"-O-butyrylspiramycin I]	–	1.56 μ g/ml	5 mice out of 10 mice	100 μ g/ml	< 0.1 μ g/ml	1.56 μ g/ml	> 100 μ g/ml	> 100 μ g/ml	1.56 μ g/ml	–
CCC(=O)OC1CC(=O)OC(C)CC=CC=CC(OC2CCC(N(C)C)C(C)O2)C(C)CC(CC=O)C(OC2OC(C)C(OC3CC(C)(OC(=O)CC)C(OC(C)=O)C(C)O3)C(N(C)C)C2O)C1OC (centres unmarked) [Compound 3, 3,3"-di-O-propionyl-4"-O-acetylspiramycin I]	–	3.12 μ g/ml	5 mice out of 10 mice	> 100 μ g/ml	< 0.1 μ g/ml	3.12 μ g/ml	> 100 μ g/ml	> 100 μ g/ml	3.12 μ g/ml	–
CCC(=O)OC1CC(=O)OC(C)CC=CC=CC(OC2CCC(N(C)C)C(C)O2)C(C)CC(CC=O)C(OC2OC(C)C(OC3CC(C)(OC(=O)CC)C(OC(=O)CC)C(C)O3)C(N(C)C)C2O)C1OC (centres unmarked) [Compound 4, 3, 3", 4"-tri-O-propionylspiramycin I]	–	1.56 μ g/ml	10 mice out of 10 mice	> 100 μ g/ml	< 0.1 μ g/ml	1.56 μ g/ml	> 100 μ g/ml	> 100 μ g/ml	1.56 μ g/ml	more excellent therapeutic effect than acetylspiramycin and 3, 3", 4"-tri-O-acetylspiramycin I
CCC(=O)OC1(C)CC(OC2C(C)OC(OC3C(CC=O)CC(C)C(OC4CCC(N(C)C)C(C)O4)C=CC=CCC(C)OC(=O)CC(OC(C)=O)C3OC)C(O)C2N(C)C)OC(C)C1OC(C)=O (centres unmarked) [Compound 5, 3, 4"-di-O-acetyl-3"-O-propionylspiramycin I]	–	1.56 μ g/ml	3 mice out of 10 mice	> 100 μ g/ml	< 0.1 μ g/ml	3.12 μ g/ml	> 100 μ g/ml	> 100 μ g/ml	3.12 μ g/ml	–
CCCC(=O)OC1(C)CC(OC2C(C)OC(OC3C(CC=O)CC(C)C(OC4CCC(N(C)C)C(C)O4)C=CC=CCC(C)OC(=O)CC(OC(C)=O)C3OC)C(O)C2N(C)C)OC(C)C1OC(C)=O (centres unmarked) [Compound 6, 3, 4"-di-O-acetyl-3"-O-butyrylspiramycin I]	–	1.56 μ g/ml	10 mice out of 10 mice	> 100 μ g/ml	0.2 μ g/ml	6.25 μ g/ml	> 100 μ g/ml	> 100 μ g/ml	3.12 μ g/ml	more excellent therapeutic effect than acetylspiramycin and 3, 3", 4"-tri-O-acetylspiramycin I
CCCC(=O)OC1(C)CC(OC2C(C)OC(OC3C(CC=O)CC(C)C(OC4CCC(N(C)C)C(C)O4)C=CC=CCC(C)OC(=O)CC(OC(=O)CC)C3OC)C(O)C2N(C)C)OC(C)C1OC(=O)CC (centres unmarked) [Compound 7, 3, 4"-di-O-propionyl-3"-O-butyrylspiramycin I]	–	1.56 μ g/ml	5 mice out of 10 mice	> 100 μ g/ml	< 0.1 μ g/ml	3.12 μ g/ml	> 100 μ g/ml	> 100 μ g/ml	1.56 μ g/ml	–
CCC(=O)OC1CC(=O)OC(C)CC=CC=CC(OC2CCC(N(C)C)C(C)O2)C(C)CC(CC=O)C(OC2OC(C)C(OC3CC(C)(OC(C)=O)C(OC(=O)CC)C(C)O3)C(N(C)C)C2O)C1OC (centres unmarked) [Compound 8, 3"-O-acetyl-3, 4"-di-O-propionylspiramycin I]	–	3.12 μ g/ml	10 mice out of 10 mice	> 100 μ g/ml	0.2 μ g/ml	3.12 μ g/ml	> 100 μ g/ml	> 100 μ g/ml	3.12 μ g/ml	more excellent therapeutic effect than acetylspiramycin and 3, 3", 4"-tri-O-acetylspiramycin I
CCCC(=O)OC1C(C)OC(OC2C(C)OC(OC3C(CC=O)CC(C)C(OC4CCC(N(C)C)C(C)O4)C=CC=CCC(C)OC(=O)CC(OC(=O)CC)C3OC)C(O)C2N(C)C)CC1(C)OC(=O)CC (centres unmarked) [Compound 9, 3, 3"-di-O-propionyl-4"-O-butyrylspiramycin I]	–	3.12 μ g/ml	8 mice out of 10 mice	> 100 μ g/ml	0.2 μ g/ml	3.12 μ g/ml	> 100 μ g/ml	> 100 μ g/ml	3.12 μ g/ml	more excellent therapeutic effect than acetylspiramycin and 3, 3", 4"-tri-O-acetylspiramycin I
CO[C@@H]1[C@@H](O[C@@H]2O[C@H](C)[C@@H](O[C@H]3C[C@@](C)(O)[C@@H](O)[C@H](C)O3)[C@H](N(C)C)[C@H]2O)[C@@H](CC=O)C[C@@H](C)[C@@H](O[C@H]2CC[C@H](N(C)C)[C@@H](C)O2)/C=C/C=C/C[C@@H](C)OC(=O)C[C@H]1O [SPMI, Spiramycin I]	–	1.56 μ g/ml	0 mice out of 10 mice	100 μ g/ml	< 0.1 μ g/ml	1.56 μ g/ml	> 100 μ g/ml	100 μ g/ml	0.78 μ g/ml	–
